# Laboratory results as given in patent US9157077B2, “Aminopyrimidine kinase inhibitors” (Jasco Pharmaceuticals, LLC, priority 2009, dated 2015).
# Like-named read-outs stand apart in the source and are kept apart here.
# What was measured:
# [1] = Hepatic microsomal stability, rat; assay type: in vitro ADME, rat (Sprague-Dawley)
# Experimental: (§1) Hepatic microsomal assays were performed with 4981, 4985, 4991 and 4999 in human and rat (Sprague-Dawley). Protein concentrations of 0.4 (human) and 0.2 mg/mL (rat) with an NADPH regenerating cofactor system (2.6 mM NADP+, 6.6 mM glucose-6-phosphate, 0.8 U/mL glucose-6-phosphate dehydrogenase, and 6.6 mM magnesium chloride) were used. A 100 μM 20% DMSO/80% acetonitrile working stock of each of the compounds was diluted 100 fold resulting in 1 μM compound/1% final organic reaction concentrations. Time points were removed at 0 and 60 minutes. At each time point, 100 μL of the incubation suspension was added to 200 μL of acetonitrile containing internal standard (tolbutamide), followed by centrifugation at 3,220 rcf for 10 minutes. Two hundred (200)μL of the resulting supernatants were removed, dried under nitrogen and reconstituted in 100 μL of 2 mM ammonium acetate, 0.1% formic acid in 50% methanol prior to analysis by LC/MS/MS. Testosterone and dexamethasone were used as reference compounds.
# [2] = Hepatic microsomal stability, human; assay type: in vitro ADME
# Experimental: as §1
# [3] = PAMPA, 5 h, 10 μM, pH 7.4
# Experimental: The target concentration in the assay was 10 μM, prepared by diluting (1000-fold) the 10 mM stock solutions in DMSO into PBS, pH 7.4. The final DMSO concentration was 0.1%. The 10 μM solutions were added, 300 μL, to wells in the donor plate. The receiver plate, which contained 200 μL of PBS, pH 7.4 per well, was placed in the donor plate and the assembly was incubated for 5 hours at ambient temperature. At the end of the incubation period the plates were separated and the compound concentrations in each solution were determined by LC/MS/MS. The assay was performed in triplicate.
# Where: • C0 is the initial concentration in the donor well (μM) • CD(t) is the concentration in the donor well after incubation (μM) • CA(t) is the concentration in the acceptor well after incubation (μM) • VD is the volume in the donor well (0.3 mL) • VA is the volume in the acceptor well (0.2 mL) • CE is (CD(t)VD+CA(t)VA)/(VD+VA) • A is the filter area (0.3 cm2) • t is the incubation time (18,000 s).
# [4] = target: Enzyme (kinases of Table 29) (Homo sapiens, UniProt P78368); experiment: Percent Activity of Enzyme When Treated with 300 nM of Compound (ATP present at Km of enzyme), Table 29; assay type: biochemical; settings: CK1γ2(h)
# Enzyme (kinases of Table 29) (Homo sapiens, UniProt P78368), sequence (P78368 whole entry): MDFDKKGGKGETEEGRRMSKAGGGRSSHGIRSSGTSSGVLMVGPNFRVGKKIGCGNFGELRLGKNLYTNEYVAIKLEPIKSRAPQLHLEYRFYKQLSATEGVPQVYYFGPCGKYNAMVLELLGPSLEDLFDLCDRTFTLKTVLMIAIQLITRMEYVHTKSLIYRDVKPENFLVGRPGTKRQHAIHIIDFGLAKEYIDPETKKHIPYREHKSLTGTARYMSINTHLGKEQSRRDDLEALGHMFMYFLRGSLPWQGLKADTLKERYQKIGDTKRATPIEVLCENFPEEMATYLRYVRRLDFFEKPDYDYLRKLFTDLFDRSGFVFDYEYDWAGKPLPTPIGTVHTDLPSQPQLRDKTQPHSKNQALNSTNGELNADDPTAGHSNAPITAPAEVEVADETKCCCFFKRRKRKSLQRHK
# [5] = test system: Enzyme (kinases of Table 29); experiment: as above; assay type: biochemical
# [6] = target: Enzyme (kinases of Table 30); experiment: IC50 of Compound (nM) (ATP present at Km of enzyme), Table 30; assay type: biochemical; settings: ATP present at Km of enzyme
smiles,measurement,setting,value
C[C@]12CC[C@H]3[C@@H](CCC4=CC(=O)CC[C@@]43C)[C@@H]1CC[C@@H]2O [Testosterone],"% remaining after incubation, Rat Microsomes","[1]; 1 μM compound, 0.2 mg/mL protein, NADPH regenerating system, 60 minutes",0.6%
same,"% remaining after incubation, Human Microsomes","[2]; 1 μM compound, 0.4 mg/mL protein, NADPH regenerating system, 60 minutes",42%
C[C@@H]1C[C@H]2[C@@H]3CCC4=CC(=O)C=C[C@]4(C)[C@@]3(F)[C@@H](O)C[C@]2(C)[C@@]1(O)C(=O)CO [Dexamethasone],"% remaining after incubation, Rat Microsomes","[1]; Sprague-Dawley, rat, microsomes, 1 h, 1 μM",91%
same,"% remaining after incubation, Human Microsomes","[2]; human, microsomes, 1 h, 1 μM",85%
same,Mass Retention R,[3],9%
"CN(C)CCOc1cc(/C=C2\SC(=O)NC2=O)nc(N2CCN(S(=O)(=O)c3ccccc3)CC2)n1 [compound 214, (Z)-5-((6-(2-(dimethylamino)ethoxy)-2-(4-(phenylsulfonyl)piperazin-1-yl)pyrimidin-4-yl)methylene)thiazolidine-2,4-dione]","Percent Activity of Enzyme, CK1γ2(h)",[4],41%
same,"Percent Activity of Enzyme, CK1(y)",[5]; CK1(y),79%
same,"Percent Activity of Enzyme, CK2(h)",[5]; CK2(h),77%
same,"Percent Activity of Enzyme, Pim-1(h)",[5]; Pim-1(h),25%
same,"Percent Activity of Enzyme, Pim-2(h)",[5]; Pim-2(h),13%
same,"Percent Activity of Enzyme, Pim-3(h)",[5]; Pim-3(h),16%
same,IC50,"[6]; Pim-1(h), read-out: IC50 of Compound, Pim-1(h)",95 nM
same,IC50,"[6]; Pim-2(h), read-out: IC50 of Compound, Pim-2(h)",35 nM
same,IC50,"[6]; Pim-3(h), read-out: IC50 of Compound, Pim-3(h)",60 nM
